# From patent US20240294881A1, “CELL CULTURE SUPPLEMENT FOR PRODUCING STEM CELLS, AND METHOD FOR PRODUCING STEM CELLS” (OPTICELL, INC, priority 2021, published 2024)
# Experiments:
# Format in all cases: cell-based
# [1] = tested on: healthy human adult skin fibroblasts; test: Real-time PCR of stem cell and triploblastic marker genes in adult skin fibroblast spheroids; settings: day 20 of 3D spheroid culture, ΔΔCt
# Method: An aqueous solution of the polypeptide represented by formula (1) (0.125%) (cell culture supplement) was added to a commercial polystyrene-made 96-well round-bottom culture vessel (Nuncion Delta 96U Bottom, Thermo Fisher Scientific) and allowed to stand at 4° C. for 24 hours. The cell culture supplement solution was then removed and the coated cell culture supplement was dried in a dryer at 37° C. for 96 hours to complete the cell culture supplement coating process. Healthy human adult skin fibroblasts (Lonza, normal human dermal fibroblast-adult, referred to as “adult skin fibroblasts” below) were maintained and cultured in a serum-free medium (Fujifilm Wako Pure Chemical Corporation; DMEM/F12 medium, human serum albumin recombinant 0.5 mg/mL, human transferrin recombinant 10 μg/mL, basic-FGF 5 ng/ml, and insulin 2.5 μg/mL). Adult skin fibroblasts floating in 100 μL of the medium were seeded in the 96-well round-bottom culture vessel coated with the cell culture supplement at 2×10^4 cells/well and cultured at 37° C. under 5% CO2 conditions.
# The detection of stem cell marker genes was performed by analysis of the expression of mRNA by real-time PCR. Specifically, on day 20 from the start of culture, spheroids were collected in a 15-mL centrifuge tube and centrifuged, followed by washing the cells with phosphate buffered saline(−) and collecting the cells. Cells two-dimensionally cultured in a culture vessel not treated with the cell culture supplement (control) (day 0) were washed with PBS (−) after removal of the medium. The cells were detached from the plate with 0.05% trypsin-EGTA and dissociated, followed by collecting the cells in a 15-mL centrifuge tube and washing again with PBS(−) again. A NucleoZOL (Macherey-Nagel) reagent was added to the spheroids, and RNA was extracted according to the protocol recommended by the reagent manufacturer and determined to be template RNA. For real-time PCR analysis, PCR probes from QuantiFast Probe RT-PCR Kits (QIAGEN; No. 204454) and TaqMan Gene Expression Assay Probe (Thermo Fisher Scientific) were used. PCR analysis was performed with a Rotor-Gene Q (QIAGEN) apparatus. For detection of genes, three transcription factors were used as probes for detecting the expression of undifferentiated stem cell marker genes: SOX2 (sex-determining region Y-box 2), OCT4 (octamer binding transcription factor 4), and NANOG (homeodomain transcription factor); and β-actin was used as an endogenous control gene (FIG. 13).
# To determine whether stem cells induced in spheroids can differentiate into primordial three germ layers, the expression of triploblastic marker genes was examined by real-time PCR. For probes for detection, the following four triploblastic marker genes were used: SOX17 (sex-determining region Y-box 17; endoderm), GATA6 (GATA family of zinc finger transcription factors; endoderm), HAND1 (heart-and neural crest derivatives-expressed protein 1; mesoderm), and SOX1 (HMG-box (high mobility group) DNA-binding domain; ectoderm). For an endogenous control gene, TaqMan Gene Expression Assay Probe (ß-actin) was used (FIG. 14). In the gene expression analysis, relative quantification was performed according to the ΔΔCt method (Delta Delta Ct method). The results of analysis according to the ΔΔCt method show the amount of a gene expressed by control cells under the conditions of “no cell culture supplement, flat-bottom 2D growth, day 0” as “1.0” in relative terms, and the increase rate in “the expression level in spheroid proliferation on day 20” was determined by comparison.
# [2] = tested on: Hela cells (human cervical epithelial cancer); test: Study on plate shape: spheroid formation; settings: 96-well plate coated with 0.125% solution, 2 days of culture
# Method: (§1) 200 μl of an aqueous solution of the polypeptide represented by formula (1) (0.125%) (cell culture supplement) was added to each well of a commercial 96-well flat-bottom plate (Thermo Fisher Scientific), a V-bottom plate (Thermo Fisher Scientific), and a U-bottom plate (Thermo Fisher Scientific) and allowed to stand at 4° C. for 16 hours.
# (§2) Thereafter, the excess cell culture supplement was removed, and the remaining solution was dried under reduced pressure at room temperature for 24 hours.
# (§3) Hela cells (human cervical epithelial cancer, JCRB9004, National Institutes of Biomedical Innovation, Health and Nutrition) and HOS-143B (human osteosarcoma) were seeded at 2,000 cells/well in a culture plate coated with the cell culture supplement and cultured at 37° C. under 5% CO2 conditions. The medium used was DMEM+10% FBS.
# [3] = tested on: HOS-143B (human osteosarcoma); test: Study on plate shape: spheroid formation; settings: 96-well plate coated with 0.125% solution, 2 days of culture
# Method: as §1, §2, §3
# [4] = tested on: ES2 cells (human ovarian cancer cells); test: Three-dimensional spheroid culture of cancer cells, microscope observation; settings: 6-well flat-bottom vessel coated with 0.125% solution; DMEM + 10% FBS; day 4 to day 15
# Method: (§4) Method 2 mL of an aqueous solution of the polypeptide represented by formula (1) (0.125%) (cell culture supplement) was added to a commercial polystyrene-made 6-well flat-bottom culture vessel (CellBIND, Corning) and allowed to stand at 4° C. for 24 hours.
# (§5) The cell culture supplement solution was then removed and the coated cell culture supplement was dried in a dryer at 37° C. for 96 hours to complete the cell culture supplement coating process. For human cancer cells, common cancer cell lines, A549 cells (human lung cancer cells, ATCC CCL-185, carcinoma), ES2 cells (human ovarian cancer cells, ATCC CRL-1978, clear cell carcinoma), and HOS-143 cells (human osteosarcoma cells, ATCC CRL-8303, osteosarcoma), were used. Each type of cancer cells was seeded in the culture vessel at 2×10^5 cells/well/[…] and cultured at 37° C. under 5% CO2. The medium for use was a DMEM medium supplemented with 10% FBS and penicillin/streptomycin. For a control, cancer cells were seeded in the same type of culture vessel that was not coated with the cell culture supplement at […]. Observation was performed with a microscope on day 4 and day 15 after the start of culture to capture images of spheroid formation (FIG. 18).
# [5] = tested on: HOS-143 cells (human osteosarcoma cells); test: as above; settings: 6-well flat-bottom vessel coated with 0.125% solution; DMEM + 10% FBS; day 4 to day 15
# Method: as §4, §5
# [6] = tested on: A549 cells (human lung cancer cells); test: as above; settings: 6-well flat-bottom vessel coated with 0.125% solution; DMEM + 10% FBS; day 4 to day 15
# Method: as §4, §5
substance,measurement,setting,value
(Pro-Hyp-Gly)n [cell culture supplement],NANOG gene expression level (increase vs control),[1]; 2D control cells = 1.0,50.5 fold
same,OCT4 gene expression level (increase vs control),[1]; 2D control cells = 1.0,13.0 fold
same,SOX2 gene expression level (increase vs control),[1]; 2D control cells = 1.0,9.4 fold
same,GATA6 gene expression level (increase vs control),[1]; control cells = 1.0,2.2 fold
same,HAND1 gene expression level (increase vs control),[1]; control cells = 1.0,33.9 fold
same,SOX1 gene expression level (increase vs control),[1]; control cells = 1.0,7.1 fold
same,SOX17 gene expression level (increase vs control),[1]; control cells = 1.0,11.4 fold
same,"spheroid formation, U-bottom plate",[2],several spheroids
same,"spheroid formation, V-bottom plate",[2],a single spheroid
same,"spheroid formation, flat-bottom plate",[2],Numerous small spheroids
same,"spheroid formation, U-bottom plate",[3],several spheroids
same,"spheroid formation, V-bottom plate",[3],a single spheroid
same,"spheroid formation, flat-bottom plate",[3],Numerous small spheroids
same,spheroid formation,[4],form spheroids
same,spheroid formation,[5],form spheroids
same,spheroid formation,[6],form spheroids
